In patent publication US8778304B2, “TSPO-targeting compounds and uses thereof” (The Johns Hopkins University, priority 2010, dated 2014):

What was measured:
TSPO [1] = target: T1, TSPO (Homo sapiens, UniProt P30536); conditions: cited from earlier work
TSPO [2] = conditions: cited from earlier work
TSPO [3] = target: T1, TSPO; conditions: first human study; cited from earlier work
TSPO [4] = target: T2, TSPO (Mus musculus, UniProt P50637); conditions: Sandhoff mice at 4 months of age; cited from earlier work
TSPO [5] = target: T3, TSPO (Rattus norvegicus, UniProt P16257); assay: In vitro autoradiography with [125I]1 on rat brain sections (neurotoxicant model of brain inflammation); format: binding
T3 construct: Fresh-frozen brains were sectioned (20 μm) on a freezing cryostat in the horizontal plane; from tissue; host or cells: rat brain sections (control and neurotoxicant-treated)
Protocol: Fresh-frozen brains were sectioned (20 μm) on a freezing cryostat in the horizontal plane. Brain sections were thaw-mounted onto poly-L-lysine-coated slides (Sigma) and stored at −20° C. until used. Autoradiography using [^125I]IodoDPA-713 ([^125I]1) was performed on adjacent brain sections using the following procedures. Slides were thawed and dried at 37° C. for 30 min and prewashed in 50 mM Tris-HCl buffer (pH 7.4) for 5 min at room temperature. Sections were then incubated in 1.4 nM [^125I]1 in 50 mM Tris-HCl buffer for 30 min at room temperature. For non-specific binding, adjacent sections were incubated in the presence of 10 μM racemic PK11195. The reaction was terminated by two 3 min washes in cold buffer (4° C.) and two dips in cold deionized water (4° C.). Sections were air-dried and apposed to Kodak Bio-Max MR film for 1 h. Images were acquired using the MCID image analysis software (InterFocus Imaging Ltd., Cambridge, England).
The first study involved a model of brain inflammation in which rats were exposed to a seizure-inducing neurotoxicant (FIG. 2). Note that higher levels of [^125I]1 were present in the neurotoxicant-treated rat brain (FIG. 2B) than in control brain (FIG. 2A). Exposure of the tissue specimens to [^125I]1 to generate these images required only 60 min, as opposed to 4-5 weeks often needed for tritium-labeled compounds when exposing the samples to film.

TSPO [6] = target: T2, TSPO; assay: Quantitative receptor autoradiography with [125I]-IodoDPA713 on Sandhoff mouse brain sections; format: binding; parameters: Fresh-frozen brains were sectioned (20 μm) on a freezing cryostat in the horizontal plane; from tissue; host or cells: mouse brain sections (fresh-frozen for A4, PLP-fixed for A5)
Protocol: Fresh-frozen brains were sectioned (20 μm) on a freezing cryostat in the horizontal plane. Brain sections were thaw-mounted onto poly-L-lysine-coated slides (Sigma-Aldrich, St. Louis, Mo.) and stored at −20° C. until used. [^125I]-IodoDPA713 autoradiography to measure TSPO levels were performed on adjacent brain sections using the same procedures. Slides were thawed and dried at 37° C. for 30 min and prewashed in 50 mM Tris-HCl buffer (pH 7.4) for 5 min at room temperature. Sections were then incubated in 0.5 nM [^125I]-IodoDPA713 in buffer for 30 min at room temperature. For non-specific binding, adjacent sections were incubated in the presence of […] racemic PK11195. The reaction was terminated by two 3-min washes in cold buffer (4° C.) and two dips in cold deionized water (4° C.). Sections incubated with [^125I]-IodoDPA713 were apposed to Kodak Bio-Max MR films with [^125I]-Microscales (GE Healthcare, Piscataway, N.J.) for 1 h. Images were acquired and quantified using the MCID software (InterFocus Imaging Ltd, Cambridge, England).

TSPO [7] = target: T2, TSPO; assay: SPECT-CT imaging of LPS-induced lung inflammation in mice; format: in vivo; conditions: for lung signal to background ratio: 1 h postinjection, lungs vs muscle
Protocol: Eight- to 10-week-old female CD-1 mice (Charles River Labs) were imaged. Mice were anesthetized by brief isoflurane sedation. While anesthetized, intranasal instillation was conducted by placing 10 μg/60 μL (167 μg/mL) of lipopolysaccharide (LPS) onto the nares (Szarka et al., “A murine model of pulmonary damage induced by lipopolysaccharide via intranasal instillation,” J. Immunol. Methods, vol. 202, pp. 49-57, 1997). The 60 μL sample was applied onto the nares as three 20 μL drops. Phosphate-buffered saline (PBS) was administered in a similar fashion and used as the control.
For single photon emission computed tomography-computed tomography (SPECT-CT) imaging 18.5 MBq (500 μCi) of [^125I]1 was injected via the tail vein into the LPS and PBS treated mice and imaged 1 h later, which corresponded to 24 h after the administration of LPS or PBS. That time point was chosen since it represents the time at which there is maximum inflammation in the lungs, as determined by a time course study with histologic correlation (data not shown). Each mouse was anesthetized with isoflurane and maintained under 1-2% isoflurane in oxygen. The mouse was positioned on the X-SPECT (Gamma Medica, Northridge, Calif.) gantry and was scanned using two opposing low energy pinhole collimators (Gamma Medica) rotating through 360° in 3° increments for 20 s per increment. Images were reconstructed using LumaGem software that accompanies the X-SPECT. Immediately following SPECT acquisition, the mice were scanned by CT over a 3-cm field-of-view using a 600-μA, 50 kV beam. […] Data were reconstructed using the ordered subsets-expectation maximization (OS-EM) algorithm. The signal to background ratio was calculated from the images by drawing regions of interest over the lungs (signal) and muscle, (background).

TSPO [8] = target: T2, TSPO; assay: [125I]-IodoDPA713 microSPECT/CT imaging of heart in coxsackievirus-induced myocarditis mice; format: in vivo
Protocol: (§1) An X-SPECT small-animal SPECT/CT system (Gamma Medica-Ideas) was used for image acquisition. Each mouse was anesthetized with isofluorane prior to imaging. About 1-2 mCi of [^125I]-IodoDPA713 was injected into each mouse via intravenous injection, and images were acquired immediately after injection. The SPECT projection data were acquired using 2 low-energy, high-resolution parallel-hole collimators with a radius of rotation of 4.65 cm (spatial resolution, 1.6 mm). The tomographic data were acquired in 64 projections over 360° at 20 s per projection. After tomography, CT was acquired in 512 projections to allow anatomic coregistration. Data were reconstructed using the ordered subsets-expectation maximization algorithm and analyzed using AMIDE software (free software provided by SourceForge). Data was analyzed using Analysis software, and time activity curve of the [^125I]-IodoDPA713 uptake was generated for each mouse. Three mice per treatment were scanned for the study.

TSPO [9] = target: T2, TSPO; assay: [125I]-IodoDPA713 microSPECT/CT dynamic in vivo imaging of TSPO in Sandhoff disease mice; parameters: Fresh-frozen brains were sectioned (20 μm) on a freezing cryostat in the horizontal plane; from tissue; host or cells: mouse brain sections (fresh-frozen for A4, PLP-fixed for A5)
Protocol: as §1, with “genotype” for “treatment”, “study. For the blocking study, non-radioactive IodoDPA713 (20 μM) was intravenously co-injected with [^125I]-IodoDPA713, and images were acquired immediately after [^125I] injection.” for “study.”

T1 sequence (P30536 whole entry): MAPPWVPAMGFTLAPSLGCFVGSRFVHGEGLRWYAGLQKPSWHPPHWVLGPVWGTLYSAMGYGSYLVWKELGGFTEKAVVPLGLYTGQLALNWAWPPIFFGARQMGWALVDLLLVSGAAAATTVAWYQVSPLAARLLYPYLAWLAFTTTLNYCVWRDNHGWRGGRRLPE

CCN(CC)C(=O)Cc1c(-c2ccc(OC)cc2)nn2c(C)cc(C)nc12 [DPA-713, N,N-diethyl-2-[2-(4-methoxy-phenyl)-5,7-dimethyl-pyrazolo[1,5-a]pyrimidin-3-yl]-acetamide]
affinity for TSPO relative to PK11195 (TSPO [1]): nearly twice

CCN(CC)C(=O)Cc1c(-c2ccc(OC)cc2)nn2c(C)cc(C)nc12 [[^11C]DPA-713]
brain uptake relative to [11C]-PK11195 (TSPO [2]; PET imaging): higher brain uptake | signal-to-noise ratios relative to [11C]PK11195 (TSPO [2]; rodent model of brain injury): higher signal-to-noise ratios | binding potential relative to [11C]PK11195 (TSPO [3]): higher binding potential

CCC(C)N(C)C(=O)c1cc2ccccc2c(-c2ccccc2Cl)n1 (centres unmarked) [[^11C]PK11195]
brain uptake (TSPO [2]; in vivo): poor brain uptake | non-specific binding (TSPO [2]; in vivo): significant non-specific binding | PET uptake in Sandhoff mice compared to wildtype (TSPO [4]): higher

CCN(CC)C(=O)Cc1c(-c2ccc(OC)c([125I])c2)nn2c(C)cc(C)nc12 [[^125I]1, N,N-Diethyl-2-[2-(3-[^125I]-iodo-4-methoxyphenyl)-5,7-dimethylpyrazolo[1,5-a]pyrimidin-3-yl]acetamide]
level of [125I]1 binding in neurotoxicant-treated rat brain versus control brain (TSPO [5]; 1.4 nM tracer, horizontal brain sections, FIG. 2A/2B): higher levels | blocking of [125I]1 uptake by PK11195 (specificity for TSPO) (TSPO [5]; neurotoxicant-treated rat, 10 μM PK11195, FIG. 2C): almost completely blocked | binding in cerebellum, Sandhoff versus wildtype (TSPO [6]; 2 months, did not reach statistical significance, p=0.098): modest increase | binding to TSPO in thalamus, Sandhoff versus wildtype (TSPO [6]; 2 months, p=0.0007): significant increases | binding to TSPO in brainstem, Sandhoff versus wildtype (TSPO [6]; 2 months, p=0.0011): significant increases | binding in hippocampus, Sandhoff versus wildtype (TSPO [6]; 2 months, p=0.63): no significant increase | binding in cerebral cortex, Sandhoff versus wildtype (TSPO [6]; 2 months, p=0.98): no significant increase | binding in thalamus, Sandhoff versus wildtype (TSPO [6]; 3 months, p<0.0001): increased TSPO binding | binding in brainstem, Sandhoff versus wildtype (TSPO [6]; 3 months, p=0.0016): increased TSPO binding | binding in cerebral cortex, Sandhoff versus wildtype (TSPO [6]; 3 months, p=0.0037): increased binding | binding in cerebellum, Sandhoff versus wildtype (TSPO [6]; 3 months, p=0.0151): increased binding | binding in hippocampus, Sandhoff versus wildtype (TSPO [6]; 3 months, p=0.5912): no increased TSPO binding | lung signal to background ratio (TSPO [7]; LPS treated mouse): 21.2 | uptake in inflamed mouse lungs relative to normal lungs (TSPO [7]; SPECT-CT, FIG. 3): 1.5 fold | lung signal to background ratio (TSPO [7]; control mouse): 14.6 | organ specificity of increased uptake (lungs and liver also analyzed) (TSPO [8]; coxsackievirus-injected mice): heart-specific | tracer uptake (SUV) in heart, coxsackievirus-injected versus PBS-injected control mice (TSPO [8]; n=3, p<0.05, FIG. 15): statistically significant increase | tracer uptake (SUV) in thalamus, Sandhoff versus wildtype (TSPO [9]; 2 months, p=0.0484): statistically significant increase | tracer uptake (SUV) in brainstem, Sandhoff versus wildtype (TSPO [9]; 3 months, p=0.0172): statistically significant increase | tracer uptake with blocker versus without blocker (TSPO [9]; Sandhoff mouse, co-injected nonradioactive IodoDPA713 (20 μM)): reduced uptake | tracer uptake (SUV) in thalamus, cerebellum and brainstem, Sandhoff versus wildtype (TSPO [9]; quantitative analysis, FIG. 8K): trend of increased uptake | tracer uptake in thalamus, Sandhoff versus wildtype (time-activity curve) (TSPO [9]; thalamus, FIG. 8J): consistently had higher uptake
